Measured values reported in PubChem BioAssay AID272 (DTP/NCI, 2004).
Records with an inconclusive call do not appear. Residues, ends and D or L forms follow the SMILES beside them. *: point of attachment. Trt = c1ccc(C(c2ccccc2)(c2ccccc2)*)cc1; Bn = c1ccc(C*)cc1

Tested on: Lewis lung carcinoma i.m., BDF1 mice, T/C %
Assay: NCI In Vivo Anticancer Drug Screen. Data for tumor model Lewis Lung Carcinoma (intramuscular) in B6D2F1 (BDF1) mice
In short: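 Tumour-bearing mice were dosed with compound, and either their survival or their tumour size was measured. Results were expressed relative to vehicle-treated controls as T/C.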

[1] = endpoint: median survival time, dose: 25.0 mg/kg/injection, schedule: Q01DX011 (ip), vehicle: saline, higher = longer survival
[2] = endpoint: median survival time, dose: 50.0 mg/kg/injection, schedule: Q01DX011 (ip), vehicle: saline, higher = longer survival
[3] = endpoint: median survival time, dose: 100.0 mg/kg/injection, schedule: Q01DX011 (ip), vehicle: saline, higher = longer survival

SMILES: NC(Cc1ccc(N(CCCl)CCCl)cc1)C(=O)O (stereo unspecified)
- T/C (endpoint: mean tumor weight, dose: 1.0 mg/kg/injection, schedule: Q01DX011 (ip), vehicle: Klucel (hydroxypropylcellulose) (HPC), higher = larger tumour): 76 % of control
- T/C (endpoint: mean tumor weight, dose: 2.0 mg/kg/injection, schedule: Q01DX011 (ip), vehicle: Klucel (hydroxypropylcellulose) (HPC), higher = larger tumour): 99 % of control
- T/C (endpoint: mean tumor weight, dose: 4.0 mg/kg/injection, schedule: Q01DX011 (ip), vehicle: Klucel (hydroxypropylcellulose) (HPC), higher = larger tumour): 52 % of control
- T/C (endpoint: median survival time, dose: 1.0 mg/kg/injection, schedule: Q01DX011 (ip), vehicle: Klucel (hydroxypropylcellulose) (HPC), higher = longer survival): 110 % of control
- T/C (endpoint: median survival time, dose: 2.0 mg/kg/injection, schedule: Q01DX011 (ip), vehicle: Klucel (hydroxypropylcellulose) (HPC), higher = longer survival): 102 % of control

SMILES: COc1cc([C@@H]2c3cc4c(cc3[C@@H](OC3OC5CO[C@@H](c6cccs6)OC5C(O)C3O)[C@H]3COC(=O)[C@H]23)OCO4)cc(OC)c1O (stereo partly specified)
- T/C (endpoint: mean tumor weight (est.), dose: 0.25 mg/kg/injection, schedule: Q01DX011 (ip), vehicle: saline, higher = larger tumour): 98 % of control
- T/C (endpoint: mean tumor weight (est.), dose: 0.5 mg/kg/injection, schedule: Q01DX011 (ip), vehicle: saline, higher = larger tumour): 74 % of control
- T/C (endpoint: mean tumor weight (est.), dose: 1.0 mg/kg/injection, schedule: Q01DX011 (ip), vehicle: saline, higher = larger tumour): 68 % of control
- T/C (endpoint: mean tumor weight (est.), dose: 2.0 mg/kg/injection, schedule: Q01DX011 (ip), vehicle: saline, higher = larger tumour): 45 % of control
- T/C (endpoint: median survival time, dose: 0.25 mg/kg/injection, schedule: Q01DX011 (ip), vehicle: saline, higher = longer survival): 118 % of control
- T/C (endpoint: median survival time, dose: 0.5 mg/kg/injection, schedule: Q01DX011 (ip), vehicle: saline, higher = longer survival): 104 % of control
- T/C (endpoint: median survival time, dose: 1.0 mg/kg/injection, schedule: Q01DX011 (ip), vehicle: saline, higher = longer survival): 106 % of control
- T/C (endpoint: median survival time, dose: 2.0 mg/kg/injection, schedule: Q01DX011 (ip), vehicle: saline, higher = longer survival): 114 % of control
- T/C (endpoint: median survival time, dose: 2.0 mg/kg/injection, schedule: Q04DX003 (ip), vehicle: saline, higher = longer survival): 104 % of control
- T/C (endpoint: median survival time, dose: 4.0 mg/kg/injection, schedule: Q04DX003 (ip), vehicle: saline, higher = longer survival): 105 % of control
- T/C (endpoint: median survival time, dose: 8.0 mg/kg/injection, schedule: Q04DX003 (ip), vehicle: saline, higher = longer survival): 115 % of control
- T/C (endpoint: median survival time, dose: 32.0 mg/kg/injection, schedule: Q04DX003 (ip), vehicle: saline, higher = longer survival): 37 % of control

SMILES: COC(=O)C(CSC(c1ccccc1)(c1ccccc1)c1ccccc1)NC(=O)C(CSCc1ccccc1)NC(C)=O (stereo unspecified) (Ac-Cys(Bn)-Cys(Trt)-OMe; configuration not given here)
- T/C (endpoint: median survival time, dose: 8.0 mg/kg/injection, schedule: Q01DX009 (ip), vehicle: Klucel (hydroxypropylcellulose) (HPC), higher = longer survival): 165 % of control
- T/C (endpoint: median survival time, dose: 32.0 mg/kg/injection, schedule: Q01DX009 (ip), vehicle: Klucel (hydroxypropylcellulose) (HPC), higher = longer survival): 121 % of control
- T/C (endpoint: median survival time, dose: 64.0 mg/kg/injection, schedule: Q01DX009 (ip), vehicle: Klucel (hydroxypropylcellulose) (HPC), higher = longer survival): 121 % of control

SMILES: COC(=O)Nc1nc2ccc(C3(c4ccc(F)cc4)OCCO3)cc2[nH]1
- T/C (endpoint: median survival time, dose: 20.0 mg/kg/injection, schedule: Q01DX011 (oral), vehicle: other, higher = longer survival): 97 % of control
- T/C (endpoint: median survival time, dose: 40.0 mg/kg/injection, schedule: Q01DX011 (oral), vehicle: other, higher = longer survival): 97 % of control

SMILES: O=C(O)C1CSCN1 (stereo unspecified)
- T/C (endpoint: median survival time, dose: 12.5 mg/kg/injection, schedule: Q01DX011 (ip), vehicle: saline, higher = longer survival): 118 % of control
- T/C [1]: 105 % of control
- T/C [2]: 97 % of control
- T/C [3]: 105 % of control

SMILES: O=c1c(O)c(-c2ccc(O)c(O)c2)oc2cc(O)cc(O)c12
- T/C (endpoint: median survival time, dose: 200.0 mg/kg/injection, schedule: Q02DX009 (ip), vehicle: saline, higher = longer survival): 102 % of control

SMILES: Nc1nc(N)c2nc(CNc3ccc(C(=O)NC(CCC(=O)O)C(=O)O)cc3)cnc2n1 (stereo unspecified)
- T/C (endpoint: median survival time, dose: 4.0 micrograms/kg/injection, schedule: Q01DX011 (ip), vehicle: other, higher = longer survival): 97 % of control
- T/C (endpoint: median survival time, dose: 8.0 micrograms/kg/injection, schedule: Q01DX011 (ip), vehicle: other, higher = longer survival): 86 % of control
- T/C (endpoint: median survival time, dose: 16.0 micrograms/kg/injection, schedule: Q01DX011 (ip), vehicle: other, higher = longer survival): 100 % of control
- T/C (endpoint: median survival time, dose: 32.0 micrograms/kg/injection, schedule: Q01DX011 (ip), vehicle: other, higher = longer survival): 109 % of control
- T/C (endpoint: median survival time, dose: 65.0 micrograms/kg/injection, schedule: Q01DX011 (ip), vehicle: other, higher = longer survival): 95 % of control

SMILES: COc1ccc(N=O)c(O)c1
- T/C [1]: 97 % of control
- T/C [2]: 100 % of control
- T/C [3]: 110 % of control

SMILES: CN1Cc2c(ccc3c2OCO3)[C@@H]2[C@H](O)Cc3cc4c(cc3[C@@H]21)OCO4
- T/C (endpoint: mean tumor weight, dose: 62.5 mg/kg/injection, schedule: Q01DX011 (ip), vehicle: saline, higher = larger tumour): 75 % of control
- T/C (endpoint: mean tumor weight, dose: 125.0 mg/kg/injection, schedule: Q01DX011 (ip), vehicle: saline, higher = larger tumour): 47 % of control
- T/C (endpoint: mean tumor weight, dose: 500.0 mg/kg/injection, schedule: Q01DX011 (ip), vehicle: saline, higher = larger tumour): 32 % of control
- T/C (endpoint: median survival time, dose: 62.5 mg/kg/injection, schedule: Q01DX011 (ip), vehicle: saline, higher = longer survival): 91 % of control
- T/C (endpoint: median survival time, dose: 125.0 mg/kg/injection, schedule: Q01DX011 (ip), vehicle: saline, higher = longer survival): 95 % of control
- T/C (endpoint: median survival time, dose: 500.0 mg/kg/injection, schedule: Q01DX011 (ip), vehicle: saline, higher = longer survival): 93 % of control
